Data on 13 molecules can be found in US5030635A, “6-7-dimethoxy-1,2-dihydro-2-arylquinazoline-3-oxides” (Ortho Pharmaceutical Corporation, priority 1990, dated 1991).

The structures appear in SMILES notation.

For experiment [1], the system named is myocardial contractile force. Put plainly: Acute In Vivo Cardiotonic Evaluation (myocardial contractile force). The conditions noted are these: Canis lupus familiaris, iv, i.v. infusion, anesthetized dogs, vs pretreatment control values, read-out: % Increase In Myocardial Contractile force; for change in vivo at 8.75 mg/kg: 8.75 mpk; for change in vivo at 1.87 mg/kg: 1.87 mpk. Further details: species or system adult mongrel dogs. As for the experimental part:
Pharmacological Activity--Acute In Vivo Cardiotonic Evaluation
Using the procedures described by Alousi, A. A. et al., Circ. Res. 45, 666 (1979), adult mongrel dogs were anesthetized with sodium pentobarbital, and artificially respirated. Arterial pressure was recorded via a femoral artery and the pressure pulse was used to trigger a cardiotachometer for heart rate. Left ventricular pressure was measured with a Millar catheter, and dP/dt was derived. Cardiac output was determined by measuring ascending aortic blood flow with an electromagnetic flow probe, and the myocardial contractile force (CF) was measured with a Walton Brodie strain gauge sutured to the right ventricle. Lead II EKG was also recorded.
A standard dose of dopamine or dobutamine was administered in order to assess myocardial responsiveness. The test compounds were then administered by i.v. infusion and the effects on cardiovascular parameters were determined. The dose of each example compound was either 1.87 mg/kg or 8.75 mg/kg as set forth below in Table 1.
The dose related effects of the compound on myocardial contractile force was compared to pretreatment control values, expressed as a % change and rated for activity. Statistical evaluations were made using the appropriate parametric test against a vehicle control.

The subject of experiment [2] is ovalbumin-induced bronchoconstriction. As to the kind of experiment: Active Lung Anaphylaxis (inhibition of ovalbumin-induced bronchoconstriction). Format: in vivo, male Harley guinea pigs. The conditions noted are these: prior to ovalbumin provocation, actively sensitized guinea pigs, percent inhibition of control. As for the experimental part: Pharmacological Activity--Active Lung Anaphylaxis
Using the procedures described by Ritchie, D. M. et al., Agents and Actions 11, 4 (1981), male Harley guinea pigs were actively sensitized, intraperitoneally, with 16 mg alum and 1 mg ovalbumin. Fourteen days later, these animals were anesthetized and their respiration arrested by the administration of succinylcholine. Respiration was maintained at a constant pressure by a miniature Starling pump. Lung overflow changes in pressure were recorded.
Animals were pretreated with indomethacin (10 mg/kg, i.v.), atropine (0.5 mg/kg, i.v.), methysergide (0.1 mg/kg, i.v.), methapyrilene (2.0 mg/kg, i.v.) and arachidonic acid (5.0 mg/kg, i.v.) prior to ovalbumin challenge. […] Indications of drug efficacy were manifested as a substantial reduction in the degree of bronchoconstriction evidenced by control animals.
Bronchoconstriction induced by ovalbumin was measured as a percent of maximum bronchoconstriction (BC) obtained by clamping off the trachea. Percent inhibition of control was determined as follows: [formula]

For `COc1cc2c(cc1OC)C(C)=[N+]([O-])C(c1ccc(Cl)cc1)N2` (stereo not drawn) [Example 2, 1,2-Dihydro-2-(4-chlorophenyl)-4-methyl-6,7-dimethoxyquinazoline-3-oxide], in experiment [1], the change in vivo at 8.75 mg/kg was 50%.

Take `COc1cc2c(cc1OC)C(C)=[N+]([O-])C(c1c(F)c(F)c(F)c(F)c1F)N2` (stereo not drawn) [Example 8, 1,2-Dihydro-2-pentafluorophenyl-4-methyl-6,7-dimethoxyquinazoline-3-oxide]: the “% Inhibition of Bronchoconstriction at 50 mpk” value (from here on “% Inhibition”) in experiment [2] was 27.3%. Besides, the change in vivo at 1.87 mg/kg in experiment [1] was determined as 33%.

As for `COc1cc2c(cc1OC)C(C)=[N+]([O-])C(c1ccccc1)N2` (stereo not drawn) [Example 1, 1,2-Dihydro-2-phenyl-4-methyl-6,7-dimethoxy-quinazoline-3-oxide], in experiment [2], the “% Inhibition” value is 60.9%. Moreover, in experiment [1], the change in vivo at 8.75 mg/kg turned out to be 157%.

For `COc1cc2c(cc1OC)C(C)=[N+]([O-])C(c1cccc3c1OCO3)N2` (stereo not drawn) [Example 6, 1,2-Dihydro-2-(2,3-methylenedioxyphenyl)-4-methyl-6,7-dimethoxyquinazoline-3-oxide], the change in vivo at 8.75 mg/kg in experiment [1] was determined as 45%.

As for `COc1cc2c(cc1OC)C(C)=[N+]([O-])C(c1ccncc1)N2` (stereo not drawn) [Example 13, 1,2-Dihydro-2-(4-pyridyl)-4-methyl-6,7-dimethoxyquinazoline-3-oxide], the change in vivo at 8.75 mg/kg in experiment [1] worked out at 29%.

As for `COc1cc2c(cc1OC)C(C)=[N+]([O-])C(c1cccs1)N2` (stereo not drawn) [Example 10, 1,2-Dihydro-2-(2-thienyl)-4-methyl-6,7-dimethoxyquinazoline-3-oxide], the change in vivo at 8.75 mg/kg in experiment [1] is 75%.

Take `COc1cc2c(cc1OC)C(C)=[N+]([O-])C(c1cccn1C)N2` (stereo not drawn) [Example 11, 1,2-Dihydro-2-(2-(N-methyl)pyrrolo)-4-methyl-6,7-dimethoxyquinazoline-3-oxide]: the change in vivo at 1.87 mg/kg in experiment [1] was 29%.

`COc1cc2c(cc1OC)C(C)=[N+]([O-])C(c1ccccn1)N2` (stereo not drawn) [Example 12, 1,2-Dihydro-2-(2-pyridyl)-4-methyl-6,7-dimethoxyquinazoline-3-oxide]: in experiment [2], the “% Inhibition” value is reported as 37.9%. In experiment [1], the change in vivo at 8.75 mg/kg stood at 45%.

For the molecule `COc1ccc(C2Nc3cc(OC)c(OC)cc3C(C)=[N+]2[O-])cc1` (stereo not drawn) [Example 3, 1,2-Dyhydro-2-(4-methoxyphenyl)-4-methyl-6,7-dimethoxyquinazoline-3-oxide], the change in vivo at 1.87 mg/kg in experiment [1] was 29%.

On to `COc1cc2c(cc1OC)C(C)=[N+]([O-])C(c1ccc(C)cc1)N2` (stereo not drawn) [Example 4, 1,2-Dihydro-2-(4-tolyl)-4-methyl-6,7-dimethoxy-quinazoline-3-oxide], for which the “% Inhibition” value in experiment [2] was 71.9%. The change in vivo at 1.87 mg/kg in experiment [1] worked out at 42%.

For `COc1cc2c(cc1OC)C(C)=[N+]([O-])C(c1ccco1)N2` (stereo not drawn) [Example 9, 1,2-Dihydro-2-(2-furyl)-4-methyl-6,7-dimethoxyquinazoline-3-oxide], the change in vivo at 8.75 mg/kg in experiment [1] came out at 123%.

With `COc1cc2c(cc1OC)C(C)=[N+]([O-])C(c1ccc3c(c1)OCO3)N2` (stereo not drawn) [Example 5, 1,2-Dihydro-2-(3,4-methylenedioxyphenyl)-4-methyl-6,7-dimethoxyquinazoline-3-oxide], the change in vivo at 8.75 mg/kg in experiment [1] was 124%.

Consider `COc1cc2c(cc1OC)C(C)=[N+]([O-])C(c1cccc(OCc3ccccc3)c1)N2` (stereo not drawn) [Example 7, 1,2-Dihydro-2-(3-benzyloxyphenyl)-4-methyl-6,7-dimethoxyquinazoline-3-oxide], for which the “% Inhibition” value in experiment [2] was 49.5%. In addition, the change in vivo at 8.75 mg/kg in experiment [1] turned out to be 20%.
